Assay results: patent US6908911B1, “Antibacterial agents” (British Biotech Pharmaceuticals Limited, priority 1999, dated 2005)
In brackets after ≈: the same amount, converted by molar mass.

Tested on: E. coli strain DH5α
Experiment: Minimal inhibitory concentration (MIC) against E. coli
Assay type: cell-based
Conditions: Escherichia coli; 2×YT broth, 37° C., 18 hours; lowest drug concentration that inhibited visible growth
Method: Minimal inhibitory concentrations (MIC) of inhibitors against E. coli strain DH5α (Genotype; F-φ80dlacZΔM15Δ(lacZYA-argF)U169 deoR recA1 endA1 hsdR17(rk^−,mk^+)phoA supE44λ^− thi-1 gyrA96 relA1) obtained from GibcoBRL Life Technologies, Enterobacter cloacae (American Type Culture Collection number 13047), Klebsiella pneumoniae (American Type Culture Collection number 13883) or Staphylococcus capitis (American Type Culture Collection number 35661) were determined as follows. Stock solutions of test compound (Compounds 1 and 2 from Examples 1 and 2 respectively (both isomer A)) and three standard laboratory antibiotics, carbenicillin (Sigma, catalogue No. C3416), kanamycin (Sigma, catalogue No. K4000) and chloramphenicol (Sigma, catalogue No. C1919), were prepared by dissolution of each compound in dimethylsulfoxide at 10 mM. […] Cell densities were adjusted to absorbance at 660 nm (A660)=0.1; the optical density-standardised preparations were diluted 1:1000 in 2×YT broth; and each well inoculated with 0.05 ml of the diluted bacteria. […] The MIC (μM) was recorded as the lowest drug concentration that inhibited visible growth.

- MIC: 12.5 µM (≈ 3.74 µg/mL)
Structure (SMILES): CCCC[C@H](CN(O)C=O)C(=O)N(C)C1CCN(C)CC1 [Example 7]
